Test results as given in article PMC7797213, “Vascular effects of serelaxin in patients with stable coronary artery disease: a randomized placebo-controlled trial” (Cardiovascular Research, 2020).

Legend:
Type in all cases: in vivo, human
[1] = tested on: patients with stable coronary artery disease; test: Adenosine stress perfusion CMR: myocardial blood flow and myocardial perfusion reserve
Procedure: (30 μg/kg/day) or matching placebo, using a computerized randomization system involving concealed treatment arms. The co-primary endpoints were the change from baseline in global myocardial perfusion reserve (MPR) measured by quantitative perfusion cardiac magnetic resonance (CMR) imaging and the change from baseline in augmentation index (AIx) measured by applanation tonometry. The primary endpoints of MPR and AIx were assessed at baseline and 47 h post-commencement of the infusion (Figure 1).
A standardized CMR protocol was acquired on 1.5 T (Siemens Avanto) or 3.0 T (Siemens Skyra and Verio) magnetic resonance imaging (MRI) scanners. The CMR protocol included standard localizers, long- and short-axis cine acquisitions, stress and rest first-pass perfusion, and late gadolinium enhancement (LGE) imaging as previously described.[24] For perfusion imaging, a saturation recovery prepared fast gradient echo sequence was used to acquire dynamic contrast-enhanced CMR during adenosine stress (140–280 µg/kg/min for 3 min) and rest, during first-pass of the IV administered contrast agent (Gadovist, 0.05 mmol/kg, 5 mL/s), followed by 20 mL saline injection (5 mL/s). Three short-axis planes through the left ventricle (basal, mid-ventricular, and apical) were obtained.
CMR image collection, blinding, and handling were managed by an independent imaging contract-research organization (CRO; VirtualScopics, Inc., Rochester, NY, USA). The CMR quantitative analyses were performed by blinded academic readers with >3 years of CMR experience (D.C., A.R., and C.B.). Cine images for ventricular volumes and mass and myocardial perfusion images were manually contoured (QMass, Medis, Leiden, Netherlands). Myocardial blood flow (MBF) was derived from stress and rest perfusion images using a Fermi deconvolution method,[25] implemented in MATLAB.[26] Global MPR was calculated from the ratio of global MBF evaluated at stress and at rest (MPR = stress MBF/rest MBF). Global MBF was calculated by averaging the MBF (mL/g/min) for basal, mid, and apical short-axis left ventricular slices. Ascending and descending aortic strain and distensibility were derived from manually contoured end-diastolic and end-systolic aortic cine images. Aortic strain (AS, unit free fraction) = [maximum aortic lumen area − minimum aortic lumen area]/minimum aortic lumen area. Aortic distensibility (AD, mmHg^−^1) = aortic strain/pulse pressure. Ascending aortic peak flow velocity (m/s) was derived from manually contoured phase-velocity encoding sequence images (QFlow, Medis, Leiden, Netherlands). The presence or absence of myocardial scar was qualitatively assessed on the LGE images.

NT-proBNP = test: Plasma biomarker NT-proBNP; conditions: for NT-proBNP, geo-mean (95% CI): plasma
Procedure: (§1) Biomarkers reported include: N-terminal pro-brain natriuretic peptide (NT-proBNP), high-sensitivity troponin T (hsTnT) measured to assess myocardial safety; cystatin C measured to access renal function; the biologically active form of endothelin-1 (1–21), measured to assess vascular function. Venous blood samples were collected at 0 (pre-dose), 24, 48, and 54 h, Day 30, and Day 180. NT-proBNP, hsTnT, and cystatin C samples were collected in EDTA tubes while endothelin-1 samples were collected in EDTA tubes containing aprotinin. Plasma was immediately frozen at −70°C pending analysis in complete patient sets. Commercial biomarker kits were as follows: hsTnT from Roche Diagnostics GmbH, Germany; cystatin C from Gentian, Moss, Norway; and active endothelin-1 […] from Biomedica Medizinprodukte, Vienna, Austria.
(§2) For the biomarker analyses, baseline was defined as the pre-dose assessment on Day 1. Raw values as well as changes from baseline were summarized by treatment and time. Descriptive statistics included geometric mean and 95% CI. For geometric means of change from baseline, a ratio to baseline was used to determine percentage change by first calculating in the log domain and then back transforming using exponentiation.
(§3) Baseline corresponds to the value at day 1 pre-dose. For change from baseline, geometric mean and its CI are calculated for the value (post) to baseline ratio.

endothelin-1 = test: Plasma biomarker endothelin-1; conditions: for Endothelin-1, geo-mean (95% CI): plasma
Procedure: as §1, §2, §3

[2] = Immunogenicity: serum anti-serelaxin antibodies; conditions: Day 1 (baseline) and Day 30, all patients
Procedure: Blood was collected on Day 1 (baseline) and post-dose on Day 30 for assessment of immunogenicity. Serum anti-serelaxin antibody concentrations were evaluated using a validated four-tiered assay approach for antibody screening, confirmation, titration, and neutralizing antibody detection, when applicable.

[3] = 0 h (pre-dose baseline), mean ± SD, n=22
[4] = 0 h (pre-dose baseline), mean ± SD, n=24
[5] = 47 h post dose, mean ± SD, n=23
[6] = 47 h post dose, mean ± SD, n=24
[7] = Bayesian, criterion 1: increase between serelaxin and placebo greater than zero
[8] = Bayesian, criterion 2: increase between serelaxin and placebo greater than 20%
[9] = baseline to 47 h, 48 h IV infusion 30 µg/kg/day, ANCOVA, n=22
[10] = baseline to day 3, Bayesian analysis
[11] = baseline to day 3, Bayesian analysis, non-informative priors, n=22
[12] = change baseline to 47 h, ANCOVA

Serelaxin
Apical MBF rest, absolute value [1, 3]: 1.41 ± 0.43 (22) mL/g/min
Apical perfusion reserve index, absolute value [1, 3]: 2.24 ± 0.89 (22)
Basal MBF rest, absolute value [1, 3]: 1.16 ± 0.39 (22) mL/g/min
Basal perfusion reserve index, absolute value [1, 3]: 2.25 ± 0.92 (22)
Global MPR, absolute value [1, 3]: 2.25 ± 0.88 (22)
Mean global MBF rest, absolute value [1, 3]: 1.26 ± 0.37 (22) mL/g/min
Mid MBF rest, absolute value [1, 3]: 1.22 ± 0.37 (22) mL/g/min
Mid perfusion reserve index, absolute value [1, 3]: 2.24 ± 0.98 (22)
Apical MBF stress, absolute value [1, 4]: 2.82 ± 1.00 (24) mL/g/min
Basal MBF stress, absolute value [1, 4]: 2.34 ± 0.90 (24) mL/g/min
Mean global MBF stress, absolute value [1, 4]: 2.54 ± 0.87 (24) mL/g/min
Mid MBF stress, absolute value [1, 4]: 2.45 ± 0.84 (24) mL/g/min
Apical MBF stress, absolute value [1, 5]: 2.66 ± 0.73 (23) mL/g/min
Apical perfusion reserve index, absolute value [1, 5]: 2.01 ± 0.60 (23)
Basal MBF stress, absolute value [1, 5]: 2.14 ± 0.84 (23) mL/g/min
Global MPR, absolute value [1, 5]: 1.98 ± 0.59 (23)
Mean global MBF stress, absolute value [1, 5]: 2.32 ± 0.67 (23) mL/g/min
Mid MBF stress, absolute value [1, 5]: 2.16 ± 0.70 (23) mL/g/min
Mid perfusion reserve index, absolute value [1, 5]: 1.93 ± 0.70 (23)
Apical MBF rest, absolute value [1, 6]: 1.41 ± 0.34 (24) mL/g/min
Basal MBF rest, absolute value [1, 6]: 1.13 ± 0.39 (24) mL/g/min
Mean global MBF rest, absolute value [1, 6]: 1.24 ± 0.32 (24) mL/g/min
Mid MBF rest, absolute value [1, 6]: 1.17 ± 0.31 (24) mL/g/min
Mean global MBF rest, probability of success Pr (Criterion 1|data) [1, 7]: 0.80
Mean global MBF stress, probability of success Pr (Criterion 1|data) [1, 7]: 0.38
Global MPR, probability of success Pr (Criterion 1|data) ([1]; Bayesian, criterion 1: increase in MPRI between serelaxin and placebo greater than zero): 0.22
Mean global MBF rest, probability of success Pr (Criterion 2|data) [1, 8]: 0.0014
Mean global MBF stress, probability of success Pr (Criterion 2|data) [1, 8]: 0.0006
Global MPR, probability of success Pr (Criterion 2|data) ([1]; Bayesian, criterion 2: increase in MPRI between serelaxin and placebo greater than 20%): 0.0002
Global MPR, change from baseline (adjusted mean) [1, 9]: -0.24
Mean global MBF rest, change from baseline (adjusted mean) [1, 9]: 0.01 mL/g/min
Mid MBF rest, change from baseline (adjusted mean) ([1]; baseline to 47 h, ANCOVA, n=22): -0.01 mL/g/min
Mid perfusion reserve index, change from baseline (adjusted mean) ([1]; baseline to 47 h, ANCOVA, n=22): -0.26
Mid MBF stress, change from baseline (adjusted mean) ([1]; baseline to 47 h, ANCOVA, n=23): -0.27 mL/g/min
Mean global MBF stress, change from baseline (adjusted mean) ([1]; baseline to 47 h, adenosine stress, 48 h IV infusion 30 µg/kg/day, ANCOVA, n=23): -0.22 mL/g/min
Global MPR, estimate of difference (serelaxin vs placebo), posterior median [1, 10]: -0.11
Mean global MBF rest, estimate of difference (serelaxin vs placebo), posterior median [1, 10]: 0.05 mL/g/min
Mean global MBF stress, estimate of difference (serelaxin vs placebo), posterior median [1, 10]: -0.05 mL/g/min
Global MPR, change from baseline, within treatment posterior median [1, 11]: -0.25
Mean global MBF rest, change from baseline, within treatment posterior median [1, 11]: 0.01 mL/g/min
Mean global MBF stress, change from baseline, within treatment posterior median ([1]; baseline to day 3, Bayesian analysis, non-informative priors, n=23): -0.22 mL/g/min
Mean global MBF rest, adjusted mean difference serelaxin versus placebo ([1]; change baseline to 47 h, 48 h IV infusion 30 µg/kg/day, ANCOVA): 0.05 mL/g/min
Global MPR, adjusted mean difference serelaxin versus placebo [1, 12]: -0.11
Mid MBF rest, adjusted mean difference serelaxin versus placebo [1, 12]: 0.06 mL/g/min
Mid MBF stress, adjusted mean difference serelaxin versus placebo [1, 12]: -0.11 mL/g/min
Mid perfusion reserve index, adjusted mean difference serelaxin versus placebo [1, 12]: -0.19
Mean global MBF stress, adjusted mean difference serelaxin versus placebo ([1]; change baseline to 47 h, adenosine stress, ANCOVA): -0.05 mL/g/min
NT-proBNP change from baseline, geometric mean ratio to baseline (95% CI) (NT-proBNP; 24 h, n=27): 0.89 (0.77, 1.02)
NT-proBNP change from baseline, geometric mean ratio to baseline (95% CI) (NT-proBNP; 48 h, n=28): 1.03 (0.79, 1.34)
NT-proBNP change from baseline, geometric mean ratio to baseline (95% CI) (NT-proBNP; 54 h, n=27): 1.36 (1.06, 1.75)
NT-proBNP change from baseline, geometric mean ratio to baseline (95% CI) (NT-proBNP; Day 30, n=29): 1.02 (0.80, 1.29)
NT-proBNP change from baseline, geometric mean ratio to baseline (95% CI) (NT-proBNP; Day 180, n=29): 1.17 (0.86, 1.58)
NT-proBNP, geo-mean (95% CI) (NT-proBNP; 0 h (pre-dose baseline), n=29): 87.0 (60.2, 125.8) pg/mL
NT-proBNP, geo-mean (95% CI) (NT-proBNP; 24 h, n=27): 74.7 (51.9, 107.5) pg/mL
NT-proBNP, geo-mean (95% CI) (NT-proBNP; 48 h, n=28): 86.8 (57.7, 130.5) pg/mL
NT-proBNP, geo-mean (95% CI) (NT-proBNP; 54 h, n=27): 117.1 (79.9, 171.7) pg/mL
NT-proBNP, geo-mean (95% CI) (NT-proBNP; Day 30, n=29): 88.4 (60.3, 129.7) pg/mL
NT-proBNP, geo-mean (95% CI) (NT-proBNP; Day 180, n=29): 101.6 (69.9, 147.8) pg/mL
Endothelin-1 change from baseline, geometric mean ratio to baseline (95% CI) (endothelin-1; 24 h, n=27): 0.82 (0.68, 0.99)
Endothelin-1 change from baseline, geometric mean ratio to baseline (95% CI) (endothelin-1; 48 h, n=28): 0.82 (0.70, 0.96)
Endothelin-1 change from baseline, geometric mean ratio to baseline (95% CI) (endothelin-1; 48 h, n=28, listed as serelaxin): 0.82
Endothelin-1 change from baseline, geometric mean ratio to baseline (95% CI) (endothelin-1; 54 h, n=26): 0.84 (0.73, 0.96)
Endothelin-1 change from baseline, geometric mean ratio to baseline (95% CI) (endothelin-1; Day 30, n=29): 0.93 (0.77, 1.13)
Endothelin-1 change from baseline, geometric mean ratio to baseline (95% CI) (endothelin-1; Day 180, n=29): 0.88 (0.69, 1.12)
Endothelin-1, geo-mean (95% CI) (endothelin-1; 0 h (pre-dose baseline), n=29): 0.874 (0.630, 1.212) pmol/L
Endothelin-1, geo-mean (95% CI) (endothelin-1; 24 h, n=27): 0.6732 (0.4626, 0.9796) pmol/L
Endothelin-1, geo-mean (95% CI) (endothelin-1; 48 h, n=28): 0.6835 (0.4647, 1.0054) pmol/L
Endothelin-1, geo-mean (95% CI) (endothelin-1; 54 h, n=26): 0.7535 (0.5098, 1.1138) pmol/L
Endothelin-1, geo-mean (95% CI) (endothelin-1; Day 30, n=29): 0.8145 (0.5881, 1.1279) pmol/L
Endothelin-1, geo-mean (95% CI) (endothelin-1; Day 180, n=29): 0.7664 (0.5436, 1.0806) pmol/L
Anti-serelaxin antibody status [2]: anti-serelaxin antibody negative
